# Target: T1, S1P1 receptor (human Endothelial Differentiation Gene 1 (EDG1)) (Homo sapiens, UniProt P21453)
# T1 construct: TEV protease site; Gal4-VP16 transcription factor; expressed in transfected cells; host or cells: Tango GPCR-bla U2OS parental cell line (EDG1-bla/U2OS)
# Assay: S1P1 Tango Assay - 384 Well Format (EDG1-bla/U2OS cells)
# Assay type: cell-based
# Conditions: agonist, beta-lactamase reporter
# Procedure: Recombinant EDG1-bla/U2OS cells (contain the human Endothelial Differentiation Gene 1 (EDG1) linked to a TEV protease site and a Gal4-VP16 transcription factor stably integrated into the Tango GPCR-bla U2OS parental cell line) were harvested from growth medium and passaged into assay medium (Invitrogen Freestyle Expression Medium). The cells were starved for 24 hours at 37° C., 5% CO2, harvested and resuspended in assay medium at a density of ˜200,000 cells/ml.
# All test compounds were dissolved in DMSO at a concentration of 10 mM and were prepared in 100% DMSO to provide 10 point dose response curves. Test compounds prepared by Bravo (Velocity 11) were added to wells in columns 2-11 and 13-22; DMSO was added to wells in columns 12 and 23 as unstimulated controls and assay medium was added to wells in columns 1 and 24 as cell-free controls. An S1P1 agonist was added to wells in row 2, columns 2-11 as stimulated controls and test compounds were added to wells in row 2, columns 13-22 and rows 3-15, columns 2-11/13-22 (row 1 and 16 were empty and not used). Compounds in solution were added to the assay plate (Greiner 781090) using an Echo (Labcyte) dose-response program (50 nl/well). The unstimulated and cell-free controls were loaded with 50 nl/well pure DMSO to ensure that the DMSO concentration was constant across the plate for all assays.
# 50 μl of the cell suspension was added to each well in columns 2-23 of the plate (˜10,000 cells per well). 50 μl of assay medium was added to each well in the cell-free controls (columns 1 and 24). The cells were incubated overnight at 37° C./5% CO2.
# 10 μl of 6× substrate mixture (LiveBLAzer™-FRET B/G substrate (CCF4-AM) Cat # K1096 from Invitrogen, Inc.) was added to each well using Bravo and the plates incubated at room temperature for 2 h in the dark. The plate was finally read on EnVision using one excitation channel (409 nm) and two emission channels (460 nm and 530 nm).
# The blue/green emission ratio (460 nm/530 nm) was calculated for each well, by dividing the background-subtracted Blue emission values by the background-subtracted Green emission values. The dose response curve is based on sigmoidal dose-response model. All ratio data was normalized based upon the maximum emission ratio of positive control and minimum emission ratio of negative control (DMSO) on each plate. The intrinsic activity (IA) of each compound would be the normalized percentage of its maximum response after curve fitting.
# T1 sequence (P21453 whole entry, the tested form may be a part): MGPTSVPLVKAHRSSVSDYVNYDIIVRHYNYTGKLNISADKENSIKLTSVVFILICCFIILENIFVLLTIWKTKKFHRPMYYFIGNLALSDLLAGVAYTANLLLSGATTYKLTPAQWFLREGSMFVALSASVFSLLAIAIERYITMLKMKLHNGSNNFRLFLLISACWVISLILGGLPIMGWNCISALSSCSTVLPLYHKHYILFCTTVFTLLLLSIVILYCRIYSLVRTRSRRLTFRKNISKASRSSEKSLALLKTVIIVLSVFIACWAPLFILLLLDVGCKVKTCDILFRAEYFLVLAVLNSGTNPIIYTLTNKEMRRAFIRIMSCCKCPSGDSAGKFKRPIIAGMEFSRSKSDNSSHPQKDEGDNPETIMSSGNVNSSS
row,SMILES,EC50 [nM]
1,"CCc1cc(OCCNC)ccc1-c1noc(-c2ccc(OC(C)C)c(C#N)c2)n1 [Example 33, 5-[3-(2-ethyl-4-{[2-(methylamino)ethyl]oxy}phenyl)-1,2,4-oxadiazol-5-yl]-2-[(1-methylethyl)oxy]benzonitrile]",≤ 10
2,"CCc1cc(OCCCC(=O)O)ccc1-c1noc(-c2ccc(OC(C)C)c(C#N)c2)n1 [Example 32, 4-{[4-(5-{3-cyano-4-[(1-methylethyl)oxy]phenyl}-1,2,4-oxadiazol-3-yl)-3-ethylphenyl]oxy}butanoic acid]",≤ 0.1
3,"CCc1cc(OCCNC)ccc1-c1noc(-c2ccc(OC(C)C)c(Cl)c2)n1 [Example 26, (2-{[4-(5-{3-chloro-4-[(1-methylethyl)oxy]phenyl}-1,2,4-oxadiazol-3-yl)-3-ethylphenyl]oxy}ethyl)methylamine]",≤ 10
4,"CCc1cc(OCCCNC)ccc1-c1noc(-c2ccc(OC(C)C)c(Cl)c2)n1 [Example 35, (3-{[4-(5-{3-chloro-4-[(1-methylethyl)oxy]phenyl}-1,2,4-oxadiazol-3-yl)-3-ethylphenyl]oxy}propyl)methylamine]",≤ 10
5,"CCc1cc(OCCCC(=O)O)ccc1-c1nc(-c2ccc(OC(C)C)c(C#N)c2)ns1 [Example 41, 4-{[4-(3-{3-cyano-4-[(1-methylethyl)oxy]phenyl}-1,2,4-thiadiazol-5-yl)-3-ethylphenyl]oxy}butanoic acid]",≤ 1
6,"CCc1cc(OCCCCC(=O)O)ccc1-c1noc(-c2ccc(OC(C)C)c(Cl)c2)n1 [Example 29, 5-{[4-(5-{3-chloro-4-[(1-methylethyl)oxy]phenyl}-1,2,4-oxadiazol-3-yl)-3-ethylphenyl]oxy}pentanoic acid]",≤ 1
7,"CC(C)Oc1ccc(-c2nc(-c3ccc(OCCCC(=O)O)cc3Cl)no2)cc1C#N [Example 10, 4-{[3-Chloro-4-(5-{3-cyano-4-[(1-methylethyl)oxy]phenyl}-1,2,4-oxadiazol-3-yl)phenyl]oxy}butanoic acid]",≤ 0.1

# Results, then the compound that gave them:
row,EC50 [nM],SMILES
1,≤ 10,"COCCOc1ccc(-c2noc(-c3ccc(OC(C)C)c(Cl)c3)n2)c(C)c1 [Example 6, 5-{3-Chloro-4-[(1-methylethyl)oxy]phenyl}-3-(2-methyl-4-{[2-(methyloxy)ethyl]oxy}phenyl)-1,2,4-oxadiazole]"
2,≤ 1,"CNCCOc1ccc(-c2noc(-c3ccc(OC(C)C)c(C#N)c3)n2)c(Cl)c1 [Example 36, 5-[3-(2-chloro-4-{[2-(methylamino)ethyl]oxy}phenyl)-1,2,4-oxadiazol-5-yl]-2-[(1-methylethyl)oxy]benzonitrile]"
3,≤ 0.1,"CC(C)Oc1ccc(-c2nc(-c3ccc(OCCCCC(=O)O)cc3Cl)no2)cc1C#N [Example 7, 5-{[3-Chloro-4-(5-{3-cyano-4-[(1-methylethyl)oxy]phenyl}-1,2,4-oxadiazol-3-yl)phenyl]oxy}pentanoic acid]"
4,≤ 1,"CC(C)Oc1ccc(-c2nc(-c3ccc(OCCCCC(=O)O)cc3)no2)cc1C#N [Example 8, 5-{[4-(5-{3-Cyano-4-[(1-methylethyl)oxy]phenyl}-1,2,4-oxadiazol-3-yl)phenyl]oxy}pentanoic acid]"
5,≤ 100,"CC(C)Oc1ccc(-c2nc(-c3ccc(OCC(=O)O)cc3)no2)cc1C#N [Example 25, {[4-(5-{3-cyano-4-[(1-methylethyl)oxy]phenyl}-1,2,4-oxadiazol-3-yl)phenyl]oxy}acetic acid]"
6,≤ 1000,"CCc1cc(OCCCNC)ccc1-c1cnc(-c2ccc(OC(C)C)c(C#N)c2)s1 [Example 44, 5-[5-(2-ethyl-4-{[3-(methylamino)propyl]oxy}phenyl)-1,3-thiazol-2-yl]-2-[(1-methylethyl)oxy]benzonitrile]"
